# Experimental data from US7033593B2, “Immunogen comprising an HIV envelope protein, a ligand and H2 peptide” (priority 2000, dated 2006).
# Entries after “also recorded” stand apart in the source; their conditions may differ. Where two headings read alike, the source gives them in different places. No end group written: not given here.
# Columns and labels:
# [1] = molecular target: A32-gp120 (89.6 gp120) (Human immunodeficiency virus type 1 group M subtype B, UniProt Q73372); details: DP178 pre-incubated with peptide
# Description: FIGS. 31A–31F. […] Data are representative of 3 separate experiments performed. Data presented for C4-V389.6P and C4-V3MN are taken from two separate experiments. (FIG. 31F) Schematic.
# The gp120 C4 region is centrally located within the CCR5 binding site in the β20–β21 strands of the gp120 bridging sheet (Wyatt et al, J. Virol. 69:5723–5733 (1995)).
# [2] = molecular target: T1, sCD4 (Homo sapiens, UniProt P01730); assay type: binding; details: SPR
# T1 construct: Soluble CD4 (sCD4) was produced by Progenics, Tarrytown, N.Y; purchased Progenics (provided by the Division of AIDS, NIAID, NIH)
# [3] = tested on: HIV-1 induced syncytia formation; assay: HIV-1 induced syncytia formation; assay type: cell-based; details: 50–200 μg/ml
# [4] = tested on: CD4-gp140 complex (89.6 gp140 oligomers); details: on CD4-gp140 complex
# Procedure: FIG. 10C. CD4-gp140 complexes (indicated by arrow) were first formed by injecting soluble 89.6 gp140 oligomers over a CD4-immobilized surface. Then the CCR5 N-terminal peptide (D1) was injected to monitor its binding to CD4-gp140 complexes.
# FIG. 10D. An overlay of the binding curves of CCR5 N-terminal peptide, D1, binding to 89.6 gp140 oligomers in the presence and absence of CD4. […] To ensure that all gp140 molecules were bound to CD4, cleaved gp140 proteins were captured on a CD4 immobilized sensor surface (RU=530), and soluble 89.6 gp140 proteins were directly immobilized (RU=3300) on an adjacent flow cell of the same sensor chip.
# (§1) SPR biosensor measurements were determined on a BIACORE 3000 (BIACORE Inc., Uppsala, Sweden) instrument. […] Binding of proteins and peptides was monitored in real-time at 25° C. and with a continuous flow of PBS, pH 7.4 at […]. Analyte (proteins and peptides) were removed and the sensor surfaces were regenerated following each cycle of binding by single or duplicate […] of regeneration solution (10 mM glycine-HCl, pH 2.5 or 10 mM NaOH).
# (§2) All analyses were performed using the non-linear fit method of O'Shannessy et al. (O'Shannessy et al, Anal. Biochem. 205:132–136 (1992)) and the BIAevaluation 3.0 software (BIACORE Inc). Rate and equilibrium constants were derived from curve fitting to the Langmuir equation for a simple bimolecular interaction (A+B=AB).
# [5] = molecular target: cleaved gp140 oligomers (HIV 89.6) (Human immunodeficiency virus type 1 group M subtype B, UniProt Q73372); assay: biochemical; assay type: binding
# [6] = molecular target: sCD4 ligated gp120 in the context of membrane bound envelope; details: Hoffman et al 2000; read-out: affinity; cited from earlier work
# [7] = molecular target: HIV-1 Env 89.6 gp120 (Human immunodeficiency virus type 1 group M subtype B, UniProt Q73372); assay: biochemical; assay type: binding, HIV-1 89.6
# [8] = tested on: sCD4-gp140 (HIV 89.6 gp140); assay: SPR binding of HR-2 peptides to sCD4-gp140 complex; details: SPR
# Procedure: as §1, §2
# (§3) A blank chip served as an in-line reference surface for subtraction of non-specific binding and bulk responses.
# (§4) Surface Plasmon Resonance Biosensor Measurements. SPR biosensor measurements were determined on a BIACORE 3000 (BIACORE Inc., Uppsala, Sweden) instrument. […] A blank in-line reference surface (activated and de-activated for amine coupling) was used to subtract non-specific or bulk responses. Binding of proteins and peptides (biotinylated or free DP178, T649Q26L, DP178-scrambled) was monitored in real-time at 25° C. with a continuous flow of PBS (150 mM NaCl, 0.005% surfactant p20), pH 7.4 at 10–30 μl/min. Analyte (proteins and peptides) were removed and the sensor surfaces were regenerated following each cycle of binding by single or duplicate 5–10 μl pulses of regeneration solution (10 mM glycine-HCl, pH 2.5 or 10 mM NaOH).
# [9] = molecular target: sCD4-gp120 (HIV 89.6 gp120) (Human immunodeficiency virus type 1 group M subtype B, UniProt Q73372); assay type: binding
# [10] = tested on: T8-gp140 (HIV 89.6 gp140); details: SPR
# Procedure: FIG. 14A. […] FIGS. 14B and 14C. […] After stabilization of gp140 capture, either the 19b (anti-gp120 V3) or 2F5 (anti-gp41) antibodies (300 μg/ml) were injected to assess the relative amounts of gp120 and gp41 on both surfaces. FIGS. 14D–14F.
# as §3, §4
# [11] = molecular target: T8-gp120 (HIV 89.6 gp120) (Human immunodeficiency virus type 1 group M subtype B, UniProt Q73372); assay type: binding; details: SPR
# Sequence of T8-gp120 (HIV 89.6 gp120) (Q73372 32-508): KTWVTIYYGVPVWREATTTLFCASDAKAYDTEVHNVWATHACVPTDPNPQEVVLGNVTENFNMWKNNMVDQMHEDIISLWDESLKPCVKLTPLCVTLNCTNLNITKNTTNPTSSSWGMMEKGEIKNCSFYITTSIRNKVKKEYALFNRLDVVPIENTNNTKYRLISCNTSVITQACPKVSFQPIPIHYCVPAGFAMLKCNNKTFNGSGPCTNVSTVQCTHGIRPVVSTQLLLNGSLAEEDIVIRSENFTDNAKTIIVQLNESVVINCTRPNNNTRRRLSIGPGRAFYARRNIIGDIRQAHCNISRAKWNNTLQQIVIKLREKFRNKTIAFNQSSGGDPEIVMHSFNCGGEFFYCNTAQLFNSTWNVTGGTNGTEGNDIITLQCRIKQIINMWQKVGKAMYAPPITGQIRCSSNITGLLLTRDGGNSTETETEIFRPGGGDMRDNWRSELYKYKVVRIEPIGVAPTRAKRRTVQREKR
# Sequence of cleaved gp140 oligomers (HIV 89.6) (Q73372 32-681): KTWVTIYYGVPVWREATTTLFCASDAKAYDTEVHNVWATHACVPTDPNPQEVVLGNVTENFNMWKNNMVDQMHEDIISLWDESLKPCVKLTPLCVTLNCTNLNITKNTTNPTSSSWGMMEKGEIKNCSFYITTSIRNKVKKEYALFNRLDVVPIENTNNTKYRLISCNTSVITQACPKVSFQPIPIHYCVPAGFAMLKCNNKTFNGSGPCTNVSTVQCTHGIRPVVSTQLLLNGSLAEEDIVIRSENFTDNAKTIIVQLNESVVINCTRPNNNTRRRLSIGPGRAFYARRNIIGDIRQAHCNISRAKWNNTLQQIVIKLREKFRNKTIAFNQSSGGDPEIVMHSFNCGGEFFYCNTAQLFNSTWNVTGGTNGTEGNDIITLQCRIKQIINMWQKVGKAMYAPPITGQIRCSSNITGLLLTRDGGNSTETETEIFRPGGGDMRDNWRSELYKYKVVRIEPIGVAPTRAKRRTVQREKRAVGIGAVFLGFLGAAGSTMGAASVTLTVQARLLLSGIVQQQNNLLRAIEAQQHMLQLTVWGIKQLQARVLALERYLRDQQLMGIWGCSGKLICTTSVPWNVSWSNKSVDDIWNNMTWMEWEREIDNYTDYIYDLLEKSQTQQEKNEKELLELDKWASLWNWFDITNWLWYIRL
# Sequence of sCD4-gp120 (HIV 89.6 gp120) (Q73372 32-508): as the sequence (Q73372 32-508) above
# Sequence of HIV-1 Env 89.6 gp120 (Q73372 32-508): as above
# Sequence of T8-gp140 (HIV 89.6 gp140) (Q73372 32-508): as above
# Sequence of T8-gp140 (HIV 89.6 gp140) (Q73372 509-680): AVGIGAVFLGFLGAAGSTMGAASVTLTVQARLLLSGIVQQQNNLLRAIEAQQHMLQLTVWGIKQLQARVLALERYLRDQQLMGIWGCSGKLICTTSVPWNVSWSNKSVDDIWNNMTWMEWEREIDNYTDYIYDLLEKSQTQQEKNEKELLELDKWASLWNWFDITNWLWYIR
substance,measurement,setting,value
TRPNNNTRERLSIGPGRAFYARR [V3],blocking of DP178 binding (in words),[1],no significant blocking
KQIINMWQEVGKAMYATRPNNNTRERLSIGPGRAFYARR [C4-V389.6],blocking of DP178 binding (in words),[1],strong blocking
"89.6 gp140: HIV 89.6 gp140 envelope, about 50:50 cleaved and uncleaved",binding to sCD4 (in words),[2],bound sCD4 well
IKQIINMWQKVGKAMYAPPIS [C4],mean % blocking of DP178 binding to 89.6 gp120,[1]; n=3,27%
same,effect on DP178 inhibition of syncytia formation (in words),[3],can reverse DP178 inhibition
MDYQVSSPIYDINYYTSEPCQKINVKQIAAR [CCR5-D1],ka,[4],9000 M⁻¹ s⁻¹
same,kd,[4],0.00256 s⁻¹
same,Kd,[4]; read-out: apparent Kd,280 nM
same,Kd,[5],1000 nM
same,binding to cleaved gp140 (in words),[5]; absence of CD4,Low levels of constitutive binding
same,kd (off-rate),[5]; absence of CD4,0.01 s⁻¹
89.6 gp120: soluble gp120 envelope protein of HIV 89.6 primary isolate (Clade B),off-rate (kd),[2]; immobilized CD4,0.00011 s⁻¹
same,off-rate,"[2]; immobilized sCD4, preliminary studies",1.1×10^−4 s^1
same,binding to sCD4 (in words),[2]; listed as HIV 89.6 gp120,most stable binding to sCD4
same,binding to sCD4 (in words),[2]; listed as HIV89.6 gp120,bound sCD4 most avidly
"native CCR5: native CCR5 co-receptor, literature value",Kd,[6],500000 nM
NNLLRAIEAQQHLLQLTVWGIKQLQARILAVERYLKDQ [DP107],binding to gp120 bound to CD4 or A32 (in words),[7],no binding was observed
KQIINMWQEVGKAMYACTRPNYNKRKRIHIGPGRAFYTTK [C4-V3MN],blocking of DP178 binding (in words),[1],strong blocking
WMEWDREINNYTSLIHSLIEESQNQLEKNEQELLEL [T649Q26L],binding to sCD4-gp140 surface (in words),[8],much higher binding; also recorded: marked binding
same,binding to sCD4-gp120 (in words),[9],specifically induced by sCD4
same,binding to T8-gp140 surface (in words),[10],no binding
same,binding to gp120 on T8 mab surface (in words),[11],neither HR-2 peptide bound
